US11279736B2, “Conformationally-preorganized, MiniPEG-containing gamma-peptide nucleic acids” (CARNEGIE MELLON UNIVERSITY, priority 2011, dated 2022)
Read-outs that look alike come from different tables or passages of the source. Marks after values point to notes of the source that are not given here. [RMPγPNA-N] = PNA unit with R-MP-gamma backbone modification (N: the base)

Assays:
[1] = system: DNA fragment, 171 bp in length (no complementary sequence); test: Non-denaturing gel-shift assay for non-specific (off-target) binding
Method: FIG. 6 illustrates the results of a non-denaturing gel-shift assay that was aimed at evaluating the extent of non-specific binding for an unmodified PNA oligomer (PNA6) and a oligomer containing the inventive R-MP-γPNA monomer (PNA10).
To assess the extent of off-target binding of PNA and ^R-MPγPNA, a gel-shift assay is performed. In this case, a DNA fragment, 171 bp in length, is incubated with different concentrations of PNA6 and PNA10 (Table 1) in 10 mM sodium phosphate buffer at 37° C. for 16 hr. The two oligomers contain identical nucleobase sequence but differ from another at the γ-backbone. PNA6 is unmodified, whereas PNA10 is modified at every other position with R-MP-γ side-chain. Following incubation, the samples are separated on non-denaturing polyacrylamide gel and stained with SYBR-Gold.

[2] = Water solubility, saturated concentration by UV-spectroscopy; type: physicochemical; details: saturated solution in water
Method: To determine whether inclusion of miniPEG in the backbone of a Formula I PNA has an effect on water solubility of the resultant oligomer, saturating concentrations of PNA6 through 10 (Table 1) were prepared in water and the concentrations of each solution was measured by UV-spectroscopy. The incorporation of a single MP unit enhances the solubility of PNA6 by nearly 2-fold (Table 5). The solubility of the oligomers is further improved, albeit to a smaller extent, with additional MP units.

[3] = system: immobilized complementary DNA; test: Surface plasmon resonance (SPR) hybridization kinetics; type: binding; details: for association rate constant ka / dissociation rate constant kd / Kd: SPR; for association rate constant ka / dissociation rate constant kd: 1:1 binding model; for dissociation rate constant kd: † values approach limits of detection
Method: FIG. 4 illustrates surface plamon resonance (SPR) sensorgrams (solid black lines) and fits (dotted lines) for hybridization of PNA probes to immobilized complementary DNA. Solutions contained 30 nM PNA. Error bars at t=420 sec illustrate standard deviations for three separate trials.
Surface plasmon resonance (SPR) analysis is used to study the hybridization kinetics of ^R-MPγPNA-DNA and ^R-MPγPNA-RNA duplexes. Briefly, SPR was performed as follows. According to one embodiment, the PNA probe was immobilized to the chip while the DNA target was captured from solution. In another embodiment, a biotinylated version of the DNA target is immobilized on a streptavidin-conjugated, carboxymethylated dextran chip at a relatively low surface density (ca. 100 response units) of DNA targets to limit mass transport effects on the association kinetics. Solutions containing 10-50 nM PNA oligomers are allowed to flow over the chip for about 420 seconds, at which point the flow is switched to a PNA-free buffer to allow net dissociation of the hybridized PNA.

[4] = system: RNA: 3′-CGUACAXACU-5, X = A, C, G, U (SEQ ID NO: 12); details: PNA-RNA, cited from earlier work
[5] = system: DNA: 3′-[…]-5, X = A, C, G, T (SEQ ID NO: 11); details: PNA-DNA, cited from earlier work
complementary DNA strand = test: UV-melting / van't Hoff analysis of PNA-DNA hybrid duplexes; type: binding; details: PNA-DNA duplex, 298 K; for Kd: UV melting; for −ΔG° / −ΔH° / −ΔTS°: averages of three trials
Method: (§1) FIGS. 2A-2B illustrate UV-melting profiles of PNA-DNA (FIG. 2A) and PNA-RNA (FIG. 2B) hybrid duplexes at a strand concentration of […] each in 10 mM sodium phosphate buffer at pH 7.4. While both the heating and cooling runs were performed because they both have nearly identical profiles UV-melting for only the heating runs are shown.
UV-melting experiments were performed to determine the effect of MP on the thermal stability of PNA oligomers following hybridization to DNA or an RNA. FIG. 3A illustrates that the incorporation of a single miniPEG side-chain stabilized a PNA-DNA duplex by 4° C. […] However, increase in thermal stability tapers off to a value of about 2.3° C. per unit for the fully-modified oligomer, that is an oligomer made up of R-MP-γPNA groups only (e.g., PNA5).
(§2) Further insights related to the contribution of miniPEG to the stability of the PNA-DNA duplex was obtained from van′t Hoff analysis. Data in Table 2 show the thermodynamic parameters associated with hybridization of PNA1 through 5 to a complementary DNA or RNA strand.

complementary RNA strand = test: UV-melting / van't Hoff analysis of PNA-RNA hybrid duplexes; type: binding
Method: as §1
A similar pattern is observed for a R-MP-γPNA-RNA duplex, but the observed increase in thermal stability is lower for a R-MP-γPNA-RNA duplex as compared to a R-MP-γPNA-DNA duplex (FIG. 3B). The enhancement in thermal stability of a R-MP-γPNA-RNA duplex is only 3° C. for the first R-MP-γPNA-monomer that is incorporated into the PNA oligomer and this gain in thermal stability reduces to about 1.2° C. per R-MP-γPNA monomer for an oligomer made entirely R-MP-γPNA (PNA5). In contrast the gain in thermal stability is about 2.3° C./unit for R-MP-γPNA-DNA duplexes.
as §2

[6] = range over mismatches, earlier study
[7] = PNA-RNA duplex, 298 K, UV-melting curve fitting
[8] = ratio of dissociation and association rate constants, † values uncertain, read-out: equilibrium dissociation constant Kd

Substance	Sat. conc. [2] [mM]	association rate constant ka [3] [M⁻¹ s⁻¹]	dissociation rate constant kd [3]	Kd (complementary DNA strand) [nM]	−ΔG° (complementary DNA strand) [kcal/mol]	−ΔH° (complementary DNA strand) [kcal/mol]	−ΔTS° (complementary DNA strand) [kcal/mol]	−ΔG° (complementary RNA strand; [7]) [kcal/mol]	−ΔH° (complementary RNA strand; [7]) [kcal/mol]	−ΔTS° (complementary RNA strand; [7]) [kcal/mol]	Kd [3, 8] [nM]	further results
H-ACGGGTAGAATAACAT-NH2 [PNA6] (all peptide nucleic acid (PNA); PNA oligomer with free N-terminus and C-terminal amide)	39											intensity of the DNA band ([1]; 10 μM (PNA/DNA ratio of 25:1) or higher): completely disappeared; intensity of the DNA band ([1]; increasing concentrations of oligomer, 37° C., 16 hr): drastic reduction
H-ACGGGTAGAATAACAT-NH2 [PNA8] (PNA; 3 R-MP-gamma units; C-terminal amide; modified_base (1)..(1) R-MP-gamma-backbone modified nucleotide; modified_base (8)..(8) R-MP-gamma-backbone modified nucleotide; modified_base (15)..(15) R-MP-gamma-backbone modified nucleotide)	108											
H-GCATGTTTGA-NH2 [PNA1] (all peptide nucleic acid (PNA); C-terminal amide)		470000	0.0013 s⁻¹	2.5	11.7 ± 0.24	65.2 ± 1.2	53.5 ± 1.2	14.3	69.1	54.7		Kd ([3]; read-out: Kd): 2.8 nM; Tm ([4]; C<>T mismatch): 37 °C; ΔTm between the perfect match and mismatch ([4]; C<>T mismatch): (−18) ° C.; Tm ([4]; G<>T mismatch): 44 °C; ΔTm between the perfect match and mismatch ([4]; G<>T mismatch): (−11) ° C.; Tm ([4]; T(U)<>T mismatch): 40 °C; ΔTm between the perfect match and mismatch ([4]; T(U)<>T mismatch): (−15) ° C.; Tm ([4]; X = A (A-T perfect match)): 55 °C; ΔTm, single-base mismatch (X=C, G, T) [4, 6]: −11 to −18 °C; Tm ([5]; C<>T mismatch): 31 °C; ΔTm between the perfect match and mismatch ([5]; C<>T mismatch): (−14)^† ° C.; Tm ([5]; G<>T mismatch): 31 °C; ΔTm between the perfect match and mismatch ([5]; G<>T mismatch): (−14) ° C.; Tm ([5]; T(U)<>T mismatch): 35 °C; ΔTm between the perfect match and mismatch ([5]; T(U)<>T mismatch): (−10) ° C.; Tm ([5]; X = A (A-T perfect match)): 45 °C; ΔTm, single-base mismatch (X=C, G, T) [5, 6]: −10 to −14 °C; Kd (complementary RNA strand; [7]): 0.035 nM; differential Tm (ΔTm), RNA versus DNA binding (complementary RNA strand; duplex with RNA compared to duplex with DNA): 10 °C
H-GCATGTTTGA-NH2 (all [RMPγPNA-N], methylation of C not given here; C-terminal amide) [PNA5]											0.054	
H-ACGGGTAGAATAACAT-NH2 [PNA9] (PNA; 5 R-MP-gamma units; C-terminal amide; modified_base (3)..(3) R-MP-gamma-backbone modified nucleotide; modified_base (6)..(6) R-MP-gamma-backbone modified nucleotide; modified_base (9)..(9) R-MP-gamma-backbone modified nucleotide; modified_base (12)..(12) R-MP-gamma-backbone modified nucleotide; modified_base (15)..(15) R-MP-gamma-backbone modified nucleotide)	350											
H-ACGGGTAGAATAACAT-NH2 [PNA7] (PNA; 1 R-MP-gamma unit; C-terminal amide; modified_base (8)..(8) R-MP-gamma-backbone modified nucleotide)	76											
H-GCATGTTTGA-NH2 [PNA4] (PNA; 5 R-MP-gamma units; C-terminal amide; modified_base (2)..(2) R-MP-gamma-backbone modified nucleotide; modified_base (4)..(4) R-MP-gamma-backbone modified nucleotide; modified_base (6)..(6) R-MP-gamma-backbone modified nucleotide; modified_base (8)..(8) R-MP-gamma-backbone modified nucleotide; modified_base (10)..(10) R-MP-gamma-backbone modified nucleotide)		660000	0.3 × 10^−4 ^† s^−1	0.0035	15.5 ± 0.24	78.6 ± 3.35	63.3 ± 2.87	17.4	85.1	67.6	0.041	SPR-derived Kd relative to Kd determined by UV melting experiments ([3]; Table 3 versus Table 2, DNA target): 12 fold
H-GCATGTTTGA-NH2 [PNA3] (PNA; 3 R-MP-gamma units; C-terminal amide; modified_base (4)..(4) R-MP-gamma-backbone modified nucleotide; modified_base (6)..(6) R-MP-gamma-backbone modified nucleotide; modified_base (8)..(8) R-MP-gamma-backbone modified nucleotide)		620000	0.00019 s⁻¹	0.051	14.1 ± 0.24	75.5 ± 2.63	61.2 ± 2.63	17	83.7	66.9	0.3	
H-ACGGGTAGAATAACAT-NH2 [PNA10] (PNA; 8 R-MP-gamma units; C-terminal amide; modified_base (2)..(2) R-MP-gamma-backbone modified nucleotide; modified_base (4)..(4) R-MP-gamma-backbone modified nucleotide; modified_base (6)..(6) R-MP-gamma-backbone modified nucleotide; modified_base (8)..(8) R-MP-gamma-backbone modified nucleotide; modified_base (10)..(10) R-MP-gamma-backbone modified nucleotide; modified_base (12)..(12) R-MP-gamma-backbone modified nucleotide; modified_bas)	>500											intensity of the DNA bands ([1]; up to 20 μM (PNA/DNA ratio of 50:1)): remained fairly constant
